{
  "source": "paper PMC11434868",
  "about": "“Synthesis and Antiproliferative Effect of 3,4,5-Trimethoxylated Chalcones on Colorectal and Prostatic Cancer Cells” (Pharmaceuticals, 2024)",
  "key": {"HCT116 [1]": {"tested_on": "HCT116", "assay": "MTT assay, antiproliferative effect on HCT116", "assay_type": "cell-based", "conditions": "Homo sapiens", "description": "(§1) Human CRC (HCT116 and HT-29) and PCa (DU145 and PC3) cell lines were purchased from the American Type Culture Collection (ATCC—LGC Standards, Molsheim, France). All cells were grown in RPMI 1640 medium supplemented with 10% FBS, 1% L-glutamine, 100 U/mL penicillin, and 100 μg/mL streptomycin. Cultures were maintained in a humidified atmosphere containing 5% CO2 at 37 °C. Cells were seeded in 75 cm^2 culture flasks at 1.2 × 10^4 cells/cm^2 for HCT116, DU145, and PC3 cells, and 2.0 × 10^4 for HT-29 cells. Cells were grown for 24 h in culture medium prior to exposure or not to obtain the synthesized compounds. Stock solutions (10^−2 M in DMSO) of each compound were diluted in culture medium to obtain appropriate final concentrations.\n(§2) • (a) MTT assay: The antiproliferative effect of all compounds was determined using MTT assay (a metabolic activity test). Briefly, cells were seeded in 96-well culture plates at 4 × 10^3 cells/well for HCT116, PC3, and DU145 cells and 6 × 10^3 cells/well for HT-29 cells (100 µL/well), and grown for 24 h in culture medium prior to exposure or not to obtain compounds 1–15 with concentrations ranging from 5 nM to 50 μM. After 24 and 48 h of treatment, MTT (5 mg/mL in PBS) was added and incubated for another 3 h. MTT was then removed from the wells before adding 100 μL/well of DMSO. The optical density was detected with a microplate reader (Multiskan FC, Thermoscientific, Bordeaux, France) at 550 nm and cell viability was expressed as a percentage of each treatment condition compared to control cells. IC50 values were calculated for all compounds from the dose–response curve. Data are expressed as the arithmetic means ± standard error of the mean (SEM) of separate experiments. All experiments were performed at least in triplicate. • (b) Trypan blue dye exclusion method: Cells were grown for 24 h then treated with compounds 10 and 13 at indicated concentrations. After 48 h of treatment, cells were trypsinized and resuspended in complete medium. Each sample was mixed with Trypan blue solution (0.14% in HBSS, Invitrogen-GIBCO, ThermoFisher, Illkirch, France). Colored (non-viable) and dye-excluding (viable) cells were counted with the LUNA-II automated cell Counter (Logos Biosystems; MC2, Aubière, France). The control was normalized to 100% including viable and dead cells. The results indicated on the histograms were expressed as the percentage of cells compared to the control. IC50 values were determined from the percentages of viable cells compared to the control."}, "HT-29 [2]": {"tested_on": "HT-29", "assay": "MTT assay, antiproliferative effect on HT-29", "assay_type": "cell-based, human", "conditions": "Homo sapiens", "description": "as §1, §2"}, "DU145 [3]": {"tested_on": "DU145", "assay": "MTT assay, antiproliferative effect on DU145", "assay_type": "cell-based", "conditions": "Homo sapiens", "description": "as §1, §2"}, "HCT116 [4]": {"tested_on": "HCT116", "assay": "Trypan blue dye exclusion method on HCT116", "assay_type": "cell-based, human", "description": "as §1, §2"}, "HT-29 [5]": {"tested_on": "HT-29", "assay": "Trypan blue dye exclusion method on HT-29", "assay_type": "cell-based, human", "description": "as §1, §2"}, "DU145 [6]": {"tested_on": "DU145", "assay": "Trypan blue dye exclusion method on DU145", "assay_type": "cell-based, human", "description": "as §1, §2"}, "PC3": {"tested_on": "PC3", "assay": "Trypan blue dye exclusion method on PC3", "assay_type": "cell-based, human", "description": "as §1, §2"}, "[7]": {"tested_on": "caspase-3 and PARP in HCT116 cells", "assay": "Western blot of apoptosis-related proteins in HCT116", "assay_type": "cell-based, human", "conditions": "HCT116, 48 h", "description": "(§3) For total protein extraction, collected samples of each condition were washed in PBS. Then, the total cell pool was centrifuged at 200 g for 5 min at 4 °C and homogenized in RIPA lysis buffer (50 mM HEPES, pH 7.5, 150 mM NaCl, 1% sodium deoxycholate, 1% NP-40, 0.1% SDS, […] of aprotinin) containing protease inhibitors according to the manufacturer’s instructions. After quantification of protein levels using the Bradford method, proteins ([…]) were separated on 12.5% SDS-PAGE gels and transferred to PVDF membranes (GE Healthcare Life Science—Fisher Scientific). Membranes were probed with respective antibodies against human caspase-3, cleaved caspase-3, and PARP according to the manufacturer’s instructions. After incubation with appropriate secondary antibodies, blots were developed using the “ImmobilonWestern” substrate, following the manufacturer’s protocol, and G:BOX system (Syngene, Cambridge, UK). Membranes were then reblotted with human anti-β-actin used as a loading control."}, "[8]": {"tested_on": "caspase-3 and PARP in HT-29 cells", "assay": "Western blot of apoptosis-related proteins in HT-29", "assay_type": "cell-based, human", "conditions": "HT-29, 48 h", "description": "as §3"}, "[9]": {"tested_on": "caspase-3 and PARP in DU145 cells", "assay": "Western blot of apoptosis-related proteins in DU145", "assay_type": "cell-based, human", "conditions": "DU145, 48 h", "description": "as §3"}, "[10]": {"tested_on": "caspase-3 and PARP in PC3 cells", "assay": "Western blot of apoptosis-related proteins in PC3", "assay_type": "cell-based, human", "conditions": "PC3, 48 h", "description": "as §3"}, "[11]": {"tested_on": "human CRC (HCT116 and HT-29) and human PCa (DU145 and PC3) cell lines", "assay": "MTT assay, summary statements over the cell lines", "assay_type": "cell-based", "conditions": "48 h, read-out: IC50 towards the selected cell lines", "description": "as §1, §2"}},
  "note": "Read-outs that look alike come from different tables or passages of the source.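 For PARP cleavage (89 kDa fragment) in this document: compared with untreated control cells.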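 For cleaved caspase-3 in this document: compared with untreated control cells.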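 For native PARP expression in this document: compared with untreated control cells.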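 For pro-caspase-3 expression in this document: compared with untreated control cells.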",
  "data": [
    {"smiles": "COc1cc(C(=O)/C=C/c2c[nH]c3ccccc23)cc(OC)c1OC", "note": "[chalcone 10, (E)-3-(1H-indol-3-yl)-1-(3,4,5-trimethoxyphenyl)prop-2-en-1-one]", "values": [
      {"measurement": "IC50", "setting": "HCT116 [1]; HCT-116, 24 h, read-out: IC50 HCT116 24 h", "value": "282 ± 12", "unit": "nM"},
      {"measurement": "IC50", "setting": "HCT116 [1]; HCT-116, 48 h, read-out: IC50 HCT116 48 h", "value": "39 ± 1", "unit": "nM"},
      {"measurement": "IC50", "setting": "HT-29 [2]; HT-29, 24 h, 24 h, read-out: IC50 HT-29 24 h", "value": "41 ± 1", "unit": "nM"},
      {"measurement": "IC50", "setting": "HT-29 [2]; HT-29, 48 h, 48 h, read-out: IC50 HT-29 48 h", "value": "28 ± 1", "unit": "nM"},
      {"measurement": "IC50", "setting": "DU145 [3]; DU-145, 24 h, read-out: IC50 DU145 24 h", "value": "51 ± 6", "unit": "nM"},
      {"measurement": "IC50", "setting": "DU145 [3]; DU-145, 48 h, read-out: IC50 DU145 48 h", "value": "20 ± 2", "unit": "nM"},
      {"measurement": "Dead cells", "setting": "HCT116 [4]; HCT116, 48 h, 0.050 µM", "value": 6.76, "unit": "%"},
      {"measurement": "Dead cells", "setting": "HCT116 [4]; HCT116, 48 h, 0.100 µM", "value": 0.85, "unit": "%"},
      {"measurement": "IC50", "setting": "HCT116 [4]; Homo sapiens, HCT-116, 48 h, from percentages of viable cells, read-out: IC50 Trypan Blue Test HCT116", "value": 43, "unit": "nM"},
      {"measurement": "viability at 0.01 µM", "setting": "HCT116 [4]; Homo sapiens, HCT-116, HCT116, 48 h, 0.010 µM, percentage of cells compared to control, read-out: Viable cells", "value": 97.7, "unit": "%"},
      {"measurement": "viability at 0.05 µM", "setting": "HCT116 [4]; Homo sapiens, HCT-116, HCT116, 48 h, 0.050 µM, read-out: Viable cells", "value": 43.2, "unit": "%"},
      {"measurement": "viability at 0.1 µM", "setting": "HCT116 [4]; Homo sapiens, HCT-116, HCT116, 48 h, 0.100 µM, read-out: Viable cells", "value": 17.4, "unit": "%"},
      {"measurement": "Dead cells", "setting": "HT-29 [5]; HT-29, 48 h, 0.010 µM", "value": 3.78, "unit": "%"},
      {"measurement": "Dead cells", "setting": "HT-29 [5]; HT-29, 48 h, 0.050 µM", "value": 3.36, "unit": "%"},
      {"measurement": "Dead cells", "setting": "HT-29 [5]; HT-29, 48 h, 0.100 µM", "value": 1.68, "unit": "%"},
      {"measurement": "IC50", "setting": "HT-29 [5]; Homo sapiens, HT-29, 48 h, from percentages of viable cells, read-out: IC50 Trypan Blue Test HT-29", "value": 21, "unit": "nM"},
      {"measurement": "viability at 0.01 µM", "setting": "HT-29 [5]; Homo sapiens, HT-29, 48 h, 0.010 µM, read-out: Viable cells", "value": 76.2, "unit": "%"},
      {"measurement": "viability at 0.05 µM", "setting": "HT-29 [5]; Homo sapiens, HT-29, 48 h, 0.050 µM, read-out: Viable cells", "value": 15.9, "unit": "%"},
      {"measurement": "viability at 0.1 µM", "setting": "HT-29 [5]; Homo sapiens, HT-29, 48 h, 0.100 µM, read-out: Viable cells", "value": 10.7, "unit": "%"},
      {"measurement": "Dead cells", "setting": "DU145 [6]; DU145, 48 h, 0.010 µM", "value": 2.21, "unit": "%"},
      {"measurement": "Dead cells", "setting": "DU145 [6]; DU145, 48 h, 0.050 µM", "value": 3.40, "unit": "%"},
      {"measurement": "Dead cells", "setting": "DU145 [6]; DU145, 48 h, 0.100 µM", "value": 5.30, "unit": "%"},
      {"measurement": "IC50", "setting": "DU145 [6]; Homo sapiens, DU-145, 48 h, from percentages of viable cells, read-out: IC50 Trypan Blue Test DU145", "value": 40, "unit": "nM"},
      {"measurement": "viability at 0.01 µM", "setting": "DU145 [6]; Homo sapiens, DU-145, DU145, 48 h, 0.010 µM, read-out: Viable cells", "value": 88.9, "unit": "%"},
      {"measurement": "viability at 0.05 µM", "setting": "DU145 [6]; Homo sapiens, DU-145, DU145, 48 h, 0.050 µM, read-out: Viable cells", "value": 40.6, "unit": "%"},
      {"measurement": "viability at 0.1 µM", "setting": "DU145 [6]; Homo sapiens, DU-145, DU145, 48 h, 0.100 µM, read-out: Viable cells", "value": 18.4, "unit": "%"},
      {"measurement": "IC50", "setting": "PC3; Homo sapiens, PC-3, 48 h, from percentages of viable cells, read-out: IC50 Trypan Blue Test PC3", "value": 32, "unit": "nM"},
      {"measurement": "viability at 0.01 µM", "setting": "PC3; Homo sapiens, PC-3, PC3, 48 h, 0.010 µM, read-out: Viable cells", "value": 91.9, "unit": "%"},
      {"measurement": "viability at 0.05 µM", "setting": "PC3; Homo sapiens, PC-3, PC3, 48 h, 0.050 µM, read-out: Viable cells", "value": 31.3, "unit": "%"},
      {"measurement": "viability at 0.1 µM", "setting": "PC3; Homo sapiens, PC-3, PC3, 48 h, 0.100 µM, read-out: Viable cells", "value": 16.5, "unit": "%"},
      {"measurement": "Dead cells", "setting": "PC3; PC3, 48 h, 0.010 µM", "value": 9.33, "unit": "%"},
      {"measurement": "Dead cells", "setting": "PC3; PC3, 48 h, 0.100 µM", "value": 4.44, "unit": "%"},
      {"measurement": "PARP cleavage (89 kDa fragment)", "setting": "[7]", "value": "induced PARP cleavage"},
      {"measurement": "cleaved caspase-3", "setting": "[7]", "value": "clearly observed"},
      {"measurement": "native PARP expression", "setting": "[7]", "value": "strong decreased expression"},
      {"measurement": "pro-caspase-3 expression", "setting": "[7]", "value": "decreased"},
      {"measurement": "PARP cleavage (89 kDa fragment)", "setting": "[8]", "value": "induced PARP cleavage"},
      {"measurement": "cleaved caspase-3", "setting": "[8]", "value": "more weakly produced"},
      {"measurement": "native PARP expression", "setting": "[8]", "value": "strong decreased expression"},
      {"measurement": "pro-caspase-3 expression", "setting": "[8]", "value": "decreased"},
      {"measurement": "PARP cleavage (89 kDa fragment)", "setting": "[9]", "value": "induced PARP cleavage"},
      {"measurement": "cleaved caspase-3", "setting": "[9]", "value": "clearly observed"},
      {"measurement": "native PARP expression", "setting": "[9]", "value": "strong decreased expression"},
      {"measurement": "pro-caspase-3 expression", "setting": "[9]", "value": "decrease was less marked"},
      {"measurement": "PARP cleavage (89 kDa fragment)", "setting": "[10]", "value": "induced PARP cleavage"},
      {"measurement": "cleaved caspase-3", "setting": "[10]", "value": "clearly observed"},
      {"measurement": "native PARP expression", "setting": "[10]", "value": "strong decreased expression"},
      {"measurement": "pro-caspase-3 expression", "setting": "[10]", "value": "decreased"},
      {"measurement": "IC50", "setting": "[11]", "value": "< 40", "unit": "nM"},
      {"measurement": "IC50", "setting": "[11]; Homo sapiens", "value": "< 50", "unit": "nM"}
    ]}
  ]
}
